# Assays:
# [1] = human, in vivo
# Protocol: (§1) Table 10 describes a Phase 1 clinical trial design (sponsor protocol no.: E7438-G000-001, ClinicalTrials.gov identifier: NCT01897571). The study population included subjects with relapsed or refractory solid tumors or B-cell lymphoma. Subjects received a 3+3 dose escalation in expansion cohorts receiving 800 mg BID and 1600 mg BID, respectively, or a cohort for ascertaining the effect of food on dosing at 400 mg BID. The primary endpoint was a determination of recommended phase II dose (RP2D)/maximum tolerated dose (MTD). Secondary endpoints included safety, pharmacokinetics (PK), pharmacodynamics (PD) and tumor response, assessed every 8 wks.
# [2] = system: relapsed or refractory solid tumors or B-cell lymphoma; assay: Phase 1 clinical trial (NCT01897571): tumor response; assay type: in vivo, human
# Protocol: as §1
compound,measurement,setting,value
CCN(c1cc(-c2ccc(CN3CCOCC3)cc2)cc(C(=O)NCc2c(C)cc(C)[nH]c2=O)c1C)C1CCOCC1 [tazemetostat],"Abdominal pain, All Events, All Grades",[1],4
same,"Abdominal pain, All Events, Grade ≥3",[1],1
same,"Abdominal pain, All Treatment-Related, All Grades",[1],1
same,"Abdominal pain, All Treatment-Related, Grade ≥3",[1],0
same,"Anemia, All Events, All Grades",[1],5
same,"Anemia, All Events, Grade ≥3",[1],0
same,"Anemia, All Treatment-Related, All Grades",[1],3
same,"Anemia, All Treatment-Related, Grade ≥3",[1],0
same,"Anxiety, All Events, All Grades",[1],3
same,"Anxiety, All Events, Grade ≥3",[1],0
same,"Anxiety, All Treatment-Related, All Grades",[1],1
same,"Anxiety, All Treatment-Related, Grade ≥3",[1],0
same,"Asthenia, All Events, All Grades",[1],23
same,"Asthenia, All Events, Grade ≥3",[1],0
same,"Asthenia, All Treatment-Related, All Grades",[1],13
same,"Asthenia, All Treatment-Related, Grade ≥3",[1],0
same,"Constipation, All Events, All Grades",[1],7
same,"Constipation, All Events, Grade ≥3",[1],0
same,"Constipation, All Treatment-Related, All Grades",[1],2
same,"Constipation, All Treatment-Related, Grade ≥3",[1],0
same,"Decreased appetite, All Events, All Grades",[1],9
same,"Decreased appetite, All Events, Grade ≥3",[1],1
same,"Decreased appetite, All Treatment-Related, All Grades",[1],4
same,"Decreased appetite, All Treatment-Related, Grade ≥3",[1],0
same,"Depression, All Events, All Grades",[1],3
same,"Depression, All Events, Grade ≥3",[1],2
same,"Depression, All Treatment-Related, All Grades",[1],1
same,"Depression, All Treatment-Related, Grade ≥3",[1],0
same,"Diarrhea, All Events, All Grades",[1],6
same,"Diarrhea, All Events, Grade ≥3",[1],0
same,"Diarrhea, All Treatment-Related, All Grades",[1],4
same,"Diarrhea, All Treatment-Related, Grade ≥3",[1],0
same,"Dry skin, All Events, All Grades",[1],5
same,"Dry skin, All Events, Grade ≥3",[1],0
same,"Dry skin, All Treatment-Related, All Grades",[1],4
same,"Dry skin, All Treatment-Related, Grade ≥3",[1],0
same,"Dysgeusia, All Events, All Grades",[1],5
same,"Dysgeusia, All Events, Grade ≥3",[1],0
same,"Dysgeusia, All Treatment-Related, All Grades",[1],5
same,"Dysgeusia, All Treatment-Related, Grade ≥3",[1],0
same,"Dyspnea, All Events, All Grades",[1],5
same,"Dyspnea, All Events, Grade ≥3",[1],0
same,"Dyspnea, All Treatment-Related, All Grades",[1],0
same,"Dyspnea, All Treatment-Related, Grade ≥3",[1],0
same,"Hepatocellular injury, All Events, All Grades",[1],2
same,"Hepatocellular injury, All Events, Grade ≥3",[1],1
same,"Hepatocellular injury, All Treatment-Related, All Grades",[1],1
same,"Hepatocellular injury, All Treatment-Related, Grade ≥3",[1],1
same,"Hypertension, All Events, All Grades",[1],3
same,"Hypertension, All Events, Grade ≥3",[1],1
same,"Hypertension, All Treatment-Related, All Grades",[1],2
same,"Hypertension, All Treatment-Related, Grade ≥3",[1],1
same,"Hypophosphatemia, All Events, All Grades",[1],4
same,"Hypophosphatemia, All Events, Grade ≥3",[1],0
same,"Hypophosphatemia, All Treatment-Related, All Grades",[1],1
same,"Hypophosphatemia, All Treatment-Related, Grade ≥3",[1],0
same,"Insomnia, All Events, All Grades",[1],3
same,"Insomnia, All Events, Grade ≥3",[1],0
same,"Insomnia, All Treatment-Related, All Grades",[1],0
same,"Insomnia, All Treatment-Related, Grade ≥3",[1],0
same,"Muscle spasms, All Events, All Grades",[1],5
same,"Muscle spasms, All Events, Grade ≥3",[1],0
same,"Muscle spasms, All Treatment-Related, All Grades",[1],3
same,"Muscle spasms, All Treatment-Related, Grade ≥3",[1],0
same,"Nausea, All Events, All Grades",[1],8
same,"Nausea, All Events, Grade ≥3",[1],0
same,"Nausea, All Treatment-Related, All Grades",[1],8
same,"Nausea, All Treatment-Related, Grade ≥3",[1],0
same,"Neutropenia, All Events, All Grades",[1],3
same,"Neutropenia, All Events, Grade ≥3",[1],1
same,"Neutropenia, All Treatment-Related, All Grades",[1],3
same,"Neutropenia, All Treatment-Related, Grade ≥3",[1],1
same,"Night sweats, All Events, All Grades",[1],3
same,"Night sweats, All Events, Grade ≥3",[1],0
same,"Night sweats, All Treatment-Related, All Grades",[1],3
same,"Night sweats, All Treatment-Related, Grade ≥3",[1],0
same,"Peripheral edema, All Events, All Grades",[1],3
same,"Peripheral edema, All Events, Grade ≥3",[1],0
same,"Peripheral edema, All Treatment-Related, All Grades",[1],2
same,"Peripheral edema, All Treatment-Related, Grade ≥3",[1],0
same,Safety profile as monotherapy,[1],acceptable
same,"Thrombocytopenia, All Events, All Grades",[1],8
same,"Thrombocytopenia, All Events, Grade ≥3",[1],2
same,"Thrombocytopenia, All Treatment-Related, All Grades",[1],7
same,"Thrombocytopenia, All Treatment-Related, Grade ≥3",[1],1
same,"Vomiting, All Events, All Grades",[1],6
same,"Vomiting, All Events, Grade ≥3",[1],0
same,"Vomiting, All Treatment-Related, All Grades",[1],5
same,"Vomiting, All Treatment-Related, Grade ≥3",[1],0
same,clinical responses in phase 1 clinical trial,[2]; both EZH2 mutant and wild type patients,demonstrated clinical responses
same,clinical activity as a monotherapy,"[2]; relapsed or refractory DLBCL (GCB and non-GCB), FL and MZL",demonstrates clinical activity

# From patent US20220193084A1, “INHIBITORS OF EZH2 AND METHODS OF USE THEREOF” (Epizyme, Inc., priority 2015, published 2022)
